Experimental data as given in paper PMC4459825, “ATP Binding and Hydrolysis Properties of ABCB10 and Their Regulation by Glutathione” (PLoS ONE, 2015).

Tests used:
[1] = target: T1, ABCB10 (ABCB10-V5) (Mus musculus, UniProt Q9JI39); experiment: UV photolabelling of SMPs, anti-V5 IP, ExtrAvidin-HRP blot; conditions: 3 mM MgCl2, pH 7.5, on ice; covalent after UV irradiation; labelled compound; net of binding and hydrolysis
T1 construct: full-length cDNA in pEF1alpha-V5-His (V5-His tagged), overexpressed in HEK293; detected at approx. 65 kD; assayed in sub-mitochondrial particles, then anti-V5 immunoprecipitated
T1 sequence (Q9JI39 83-715): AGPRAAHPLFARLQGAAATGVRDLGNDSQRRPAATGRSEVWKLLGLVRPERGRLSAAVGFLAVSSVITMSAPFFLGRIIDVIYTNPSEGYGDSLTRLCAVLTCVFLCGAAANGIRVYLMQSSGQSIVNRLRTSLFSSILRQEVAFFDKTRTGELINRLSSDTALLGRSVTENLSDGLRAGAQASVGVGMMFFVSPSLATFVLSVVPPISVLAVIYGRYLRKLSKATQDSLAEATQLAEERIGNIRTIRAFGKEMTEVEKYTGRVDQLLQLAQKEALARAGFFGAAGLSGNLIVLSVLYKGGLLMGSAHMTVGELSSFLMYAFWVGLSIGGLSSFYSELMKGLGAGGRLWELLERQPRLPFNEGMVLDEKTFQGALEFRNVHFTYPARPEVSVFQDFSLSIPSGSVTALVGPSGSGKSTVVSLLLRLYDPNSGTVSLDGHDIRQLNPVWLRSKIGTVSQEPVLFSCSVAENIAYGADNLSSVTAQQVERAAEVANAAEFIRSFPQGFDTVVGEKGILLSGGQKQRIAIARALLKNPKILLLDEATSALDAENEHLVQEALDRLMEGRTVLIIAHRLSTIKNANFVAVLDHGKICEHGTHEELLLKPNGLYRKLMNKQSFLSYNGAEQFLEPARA

[2] = target: T1, ABCB10 (ABCB10-V5); experiment: competition with 8-azido-ATP [γ] biotin photolabelling in SMPs, anti-V5 IP; conditions: 50 μM 8-azido-ATP [γ] biotin, 3 mM MgCl2, pH 7.5, on ice; nucleotide binding domain, competitive

Compound | Km [1] | competition with 8-azido-ATP [γ] biotin photolabelling in SMPs, anti-V5 IP [2]
8-azido-ATP [γ] biotin | 128 µM | 
Nc1ncnc2c1ncn2[C@@H]1O[C@H](COP(=O)(O)OP(=O)(O)OP(=O)(O)O)[C@@H](O)[C@H]1O [ATP] |  | Increasing concentrations of unlabeled ATP decreased 8-azido-ATP [γ] biotin photolabeling
Nc1ccn([C@@H]2O[C@H](COP(=O)(O)OP(=O)(O)OP(=O)(O)O)[C@@H](O)[C@H]2O)c(=O)n1 [CTP] |  | GTP, CTP and TTP could compete with ATP, but their effect was milder
Nc1nc2c(ncn2[C@@H]2O[C@H](COP(=O)(O)OP(=O)(O)OP(=O)(O)O)[C@@H](O)[C@H]2O)c(=O)[nH]1 [GTP] |  | GTP, CTP and TTP could compete with ATP, but their effect was milder
Cc1cn([C@H]2C[C@H](O)[C@@H](COP(=O)(O)OP(=O)(O)OP(=O)(O)O)O2)c(=O)[nH]c1=O [TTP] |  | GTP, CTP and TTP could compete with ATP, but their effect was milder
